Literature values as cited in US20200121616A1, “COMPOSITIONS COMPRISING CANNABIDIOL AND HYALURONIC ACID FOR TREATING INFLAMMATORY JOINT DISEASES” (BOL PHARMA LTD., priority 2015, published 2020).

## Hyaluronic acid
  pKa: about 2.8
